Reference: ChEMBL document CHEMBL4261532, “Theoretical models of inhibitory activity for inhibitors of protein-protein interactions: targeting menin-mixed lineage leukemia with small molecules” (Medchemcomm, 2017)

The compounds below were run against T1, Menin/Histone-lysine N-methyltransferase MLL (Homo sapiens, UniProt O00255) (assay: Inhibition of menin (unknown origin)-fluorescein-labeled MLL1 (unknown origin) after 1 hr by fluorescence polarization assay).
Assay type: protein assay

T1 sequence (O00255 whole entry): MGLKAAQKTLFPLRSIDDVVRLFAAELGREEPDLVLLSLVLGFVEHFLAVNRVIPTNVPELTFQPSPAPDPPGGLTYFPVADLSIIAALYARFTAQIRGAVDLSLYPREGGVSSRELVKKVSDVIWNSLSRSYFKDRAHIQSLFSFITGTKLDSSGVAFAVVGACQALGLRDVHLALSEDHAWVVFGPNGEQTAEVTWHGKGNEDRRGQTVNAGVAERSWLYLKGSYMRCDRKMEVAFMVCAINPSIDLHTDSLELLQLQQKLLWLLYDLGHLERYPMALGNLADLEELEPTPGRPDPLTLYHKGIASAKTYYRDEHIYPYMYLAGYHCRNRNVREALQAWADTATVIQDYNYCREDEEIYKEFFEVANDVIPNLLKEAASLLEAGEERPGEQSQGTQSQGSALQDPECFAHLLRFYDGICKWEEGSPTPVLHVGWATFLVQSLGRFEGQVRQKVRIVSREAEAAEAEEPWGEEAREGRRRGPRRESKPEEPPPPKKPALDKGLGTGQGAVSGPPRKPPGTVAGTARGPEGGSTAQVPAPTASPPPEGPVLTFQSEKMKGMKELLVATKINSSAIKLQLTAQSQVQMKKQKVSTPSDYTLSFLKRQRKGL
T1 sequence (Q03164 1-2718 partner limits assumed): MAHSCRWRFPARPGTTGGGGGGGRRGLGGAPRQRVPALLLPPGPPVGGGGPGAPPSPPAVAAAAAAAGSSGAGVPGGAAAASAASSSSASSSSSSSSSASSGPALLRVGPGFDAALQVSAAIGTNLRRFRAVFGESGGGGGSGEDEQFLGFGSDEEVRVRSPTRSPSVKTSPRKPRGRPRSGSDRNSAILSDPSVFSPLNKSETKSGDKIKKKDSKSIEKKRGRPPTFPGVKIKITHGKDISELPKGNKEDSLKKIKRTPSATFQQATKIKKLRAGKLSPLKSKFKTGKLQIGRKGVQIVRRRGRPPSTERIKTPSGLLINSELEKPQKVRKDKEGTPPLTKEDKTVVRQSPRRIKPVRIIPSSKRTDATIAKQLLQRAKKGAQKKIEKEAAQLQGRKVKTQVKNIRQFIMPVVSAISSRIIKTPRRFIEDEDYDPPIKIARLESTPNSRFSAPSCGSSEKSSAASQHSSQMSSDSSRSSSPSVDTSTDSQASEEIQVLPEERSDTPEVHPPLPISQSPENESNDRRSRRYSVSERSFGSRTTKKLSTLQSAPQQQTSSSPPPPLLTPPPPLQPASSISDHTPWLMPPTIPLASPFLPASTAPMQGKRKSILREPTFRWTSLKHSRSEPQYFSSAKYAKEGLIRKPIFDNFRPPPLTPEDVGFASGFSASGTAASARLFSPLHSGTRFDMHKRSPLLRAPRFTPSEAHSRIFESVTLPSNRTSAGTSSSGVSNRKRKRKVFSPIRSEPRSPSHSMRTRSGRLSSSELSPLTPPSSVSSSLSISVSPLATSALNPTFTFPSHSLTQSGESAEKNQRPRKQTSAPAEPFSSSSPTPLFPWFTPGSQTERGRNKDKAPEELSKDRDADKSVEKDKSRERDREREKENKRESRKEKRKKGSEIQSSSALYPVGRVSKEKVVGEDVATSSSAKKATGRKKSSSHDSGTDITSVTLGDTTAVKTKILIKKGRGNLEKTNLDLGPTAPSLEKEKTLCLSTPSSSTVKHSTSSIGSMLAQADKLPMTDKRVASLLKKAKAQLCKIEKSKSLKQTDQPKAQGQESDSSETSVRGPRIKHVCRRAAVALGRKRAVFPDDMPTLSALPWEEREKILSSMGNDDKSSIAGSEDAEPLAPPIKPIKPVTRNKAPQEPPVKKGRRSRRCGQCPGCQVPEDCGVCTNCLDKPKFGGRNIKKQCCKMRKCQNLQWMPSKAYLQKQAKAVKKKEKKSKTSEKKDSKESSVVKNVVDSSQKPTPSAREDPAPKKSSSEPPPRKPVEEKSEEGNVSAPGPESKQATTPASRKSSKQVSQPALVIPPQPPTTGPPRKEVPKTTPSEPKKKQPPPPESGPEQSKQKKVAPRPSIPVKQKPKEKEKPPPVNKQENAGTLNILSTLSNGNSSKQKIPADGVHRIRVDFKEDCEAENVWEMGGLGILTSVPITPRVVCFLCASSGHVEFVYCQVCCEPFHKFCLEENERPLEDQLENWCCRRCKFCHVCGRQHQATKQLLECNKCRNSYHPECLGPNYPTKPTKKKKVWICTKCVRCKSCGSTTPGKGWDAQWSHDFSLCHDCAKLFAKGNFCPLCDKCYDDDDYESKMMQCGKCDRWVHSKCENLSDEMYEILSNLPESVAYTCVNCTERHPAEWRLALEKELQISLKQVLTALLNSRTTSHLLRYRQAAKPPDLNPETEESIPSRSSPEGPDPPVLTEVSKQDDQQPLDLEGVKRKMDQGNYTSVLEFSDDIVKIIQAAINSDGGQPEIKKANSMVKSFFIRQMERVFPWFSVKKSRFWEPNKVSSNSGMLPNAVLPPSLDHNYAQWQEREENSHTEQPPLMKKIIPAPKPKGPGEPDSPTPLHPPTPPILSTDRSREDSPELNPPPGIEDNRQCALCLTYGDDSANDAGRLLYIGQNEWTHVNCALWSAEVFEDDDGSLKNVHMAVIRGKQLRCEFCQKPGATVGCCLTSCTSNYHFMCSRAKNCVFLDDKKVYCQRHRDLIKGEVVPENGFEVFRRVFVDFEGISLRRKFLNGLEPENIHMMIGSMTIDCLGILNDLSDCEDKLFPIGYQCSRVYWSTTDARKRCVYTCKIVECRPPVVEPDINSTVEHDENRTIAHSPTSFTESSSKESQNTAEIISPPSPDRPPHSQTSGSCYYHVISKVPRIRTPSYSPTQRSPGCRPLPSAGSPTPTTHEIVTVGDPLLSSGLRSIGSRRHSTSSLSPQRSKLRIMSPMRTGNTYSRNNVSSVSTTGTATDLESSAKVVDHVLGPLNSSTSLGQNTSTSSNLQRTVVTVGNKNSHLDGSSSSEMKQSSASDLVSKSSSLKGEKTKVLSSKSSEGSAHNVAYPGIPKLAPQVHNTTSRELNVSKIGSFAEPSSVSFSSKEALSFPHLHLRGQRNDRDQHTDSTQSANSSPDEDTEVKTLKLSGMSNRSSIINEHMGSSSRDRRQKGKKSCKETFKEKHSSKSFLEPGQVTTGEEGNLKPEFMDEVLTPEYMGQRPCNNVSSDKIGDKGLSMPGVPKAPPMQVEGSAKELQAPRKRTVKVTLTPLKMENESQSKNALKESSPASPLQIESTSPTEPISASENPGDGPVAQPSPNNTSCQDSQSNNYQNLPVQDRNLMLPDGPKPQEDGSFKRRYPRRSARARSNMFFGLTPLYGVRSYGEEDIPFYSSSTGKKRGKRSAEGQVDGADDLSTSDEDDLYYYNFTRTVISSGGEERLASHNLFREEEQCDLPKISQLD
T1 sequence (Q03164 2719-3969 partner limits assumed): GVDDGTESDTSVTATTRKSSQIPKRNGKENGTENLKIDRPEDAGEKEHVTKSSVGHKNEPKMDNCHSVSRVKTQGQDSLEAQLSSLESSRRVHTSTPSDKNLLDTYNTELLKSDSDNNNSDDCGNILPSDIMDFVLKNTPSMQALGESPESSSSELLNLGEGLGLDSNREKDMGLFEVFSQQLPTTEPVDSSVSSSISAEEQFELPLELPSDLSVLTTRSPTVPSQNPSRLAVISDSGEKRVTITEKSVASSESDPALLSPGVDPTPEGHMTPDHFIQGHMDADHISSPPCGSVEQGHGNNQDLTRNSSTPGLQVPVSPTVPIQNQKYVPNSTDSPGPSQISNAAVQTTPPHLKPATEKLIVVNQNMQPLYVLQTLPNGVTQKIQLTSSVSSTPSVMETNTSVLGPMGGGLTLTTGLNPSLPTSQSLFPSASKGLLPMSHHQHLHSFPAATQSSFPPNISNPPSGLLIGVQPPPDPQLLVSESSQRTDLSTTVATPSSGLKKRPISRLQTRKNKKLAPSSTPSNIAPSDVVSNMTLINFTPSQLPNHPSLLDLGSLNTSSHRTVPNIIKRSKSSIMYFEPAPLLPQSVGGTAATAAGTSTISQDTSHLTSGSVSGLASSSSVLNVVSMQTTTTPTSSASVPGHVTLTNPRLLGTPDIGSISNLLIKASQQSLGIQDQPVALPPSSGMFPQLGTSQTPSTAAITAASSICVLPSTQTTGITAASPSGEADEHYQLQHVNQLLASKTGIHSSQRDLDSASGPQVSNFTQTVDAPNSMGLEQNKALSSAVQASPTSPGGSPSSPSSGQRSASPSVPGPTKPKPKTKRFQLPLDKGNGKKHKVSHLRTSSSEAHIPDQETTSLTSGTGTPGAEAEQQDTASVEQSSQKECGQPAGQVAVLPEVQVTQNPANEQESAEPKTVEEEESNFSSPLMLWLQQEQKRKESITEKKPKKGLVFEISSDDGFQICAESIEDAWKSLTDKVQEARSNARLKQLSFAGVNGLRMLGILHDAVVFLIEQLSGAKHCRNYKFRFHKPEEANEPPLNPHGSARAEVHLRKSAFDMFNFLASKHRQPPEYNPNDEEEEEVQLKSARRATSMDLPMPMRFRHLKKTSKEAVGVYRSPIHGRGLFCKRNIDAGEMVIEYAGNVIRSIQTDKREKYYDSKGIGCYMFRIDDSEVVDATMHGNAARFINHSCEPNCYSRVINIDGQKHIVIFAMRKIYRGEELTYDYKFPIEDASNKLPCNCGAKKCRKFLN

| SMILES | IC50 [µM] |
| --- | --- |
| CCc1cc2c(N3CCN(c4nnc(C(F)(F)F)s4)CC3)ncnc2s1 | 1.3 |
| FC(F)(F)Cc1cc2c(N3CCN(c4nnc(C(F)(F)F)o4)CC3)ncnc2s1 | 1.4 |
| FC(F)(F)c1nnc(N2CCN(c3ncnc4sc(C5CC5)cc34)CC2)s1 | 2 |
| CCCc1cc2c(N3CCN(c4nnc(C(F)(F)F)[nH]4)CC3)ncnc2s1 | 200 |
| CC1(C)CN=C(N2CCN(c3ncnc4sc(CCCl)cc34)CC2)S1 | 0.193 |
| CSc1cc2c(N3CCN(c4nnc(C(F)(F)F)s4)CC3)ncnc2s1 | 20 |
| CCCc1cc2c(N3CCN(c4nnc(C(F)(F)F)s4)CC3)ncnc2s1 | 0.65 |

What follows are compounds tested against T1, Menin/Histone-lysine N-methyltransferase MLL (assay: Inhibition of full length human menin-MLL1 (4 to 43 residues) (unknown origin) protein-protein interaction after 1 hr by fluorescence polarization assay).

| SMILES | IC50 [µM] |
| --- | --- |
| CC(c1cc2c(N3CCN(C4=NCC(C)(C)S4)CC3)ncnc2s1)C(F)(F)F (stereo not given) | 0.765 |

What follows are compounds tested against T1, Menin/Histone-lysine N-methyltransferase MLL (assay: Inhibition of menin (unknown origin)-FITC-tagged MLL1 (unknown origin) protein-protein interaction after 1 hr by fluorescence polarization assay).

| SMILES | IC50 [µM] |
| --- | --- |
| CCc1cc2c(N3CCN(Cc4ccccc4)CC3)ncnc2s1 | 52 |
| CCc1cc2c(N3CCN(c4ccccn4)CC3)ncnc2s1 | 58 |
| CCc1cc2c(N3CCN(c4ncccn4)CC3)ncnc2s1 | 87 |
| CCc1cc2c(N3CCN(Cc4ccc(Cl)cc4)CC3)ncnc2s1 | 14 |
| CCc1cc2c(N3CCN(c4nncs4)CC3)ncnc2s1 | 193 |
| CCCCc1cc2c(N3CCN(C4=NCC(C)(C)S4)CC3)ncnc2s1 | 0.75 |
| CCc1cc2c(N3CCN(c4nccs4)CC3)ncnc2s1 | 46 |
